The values that follow are results of earlier work, collected in US6676959B1, “Nicotine-containing pharmaceutical compositions giving a rapid transmucosal absorption” (priority 1998, dated 2004).

The conditions of this data set: after starting smoking.

Regarding `CN1CCCC1c1cccnc1` (stereo not shown) [nicotine], the “Time to peak blood levels of nicotine” value was 5 to 10 min.
